Assay results taken from PubChem BioAssay AID1963828 (Molecular Pharmacology Branch, DTP, NCI, 2024).

System: 991263-137-R1-J2-PDC complex spheroid viability
Experiment: Anticancer human tumor 991263-137-R1-J2-PDC patient-derived colon adenocarcinoma cell line growth inhibition [POLQ]
Conditions: for IC50: curve of first compound; for viability, T/C: stronger effect = lower value
In short: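 Growth inhibition in 3D: complex spheroids (tumor PDC, HUVEC, MSC) treated with POLQ inhibitor combinations; where Cmax unknown, highest tested concentration 10 microM, except SN-38 at 1 microM.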

[1] = second compound 0.0316 µM, first compound 0.0316 µM
[2] = second compound 0.0316 µM, first compound 0.1 µM
[3] = second compound 0.0316 µM, first compound 0.316 µM
[4] = second compound 0.0316 µM, first compound 1 µM
[5] = second compound 0.0316 µM, first compound 3.16 µM
[6] = second compound 0.0316 µM, first compound 10 µM
[7] = second compound 0.1 µM, first compound 0.0316 µM
[8] = second compound 0.1 µM, first compound 0.1 µM
[9] = second compound 0.1 µM, first compound 0.316 µM
[10] = second compound 0.1 µM, first compound 1 µM
[11] = second compound 0.1 µM, first compound 3.16 µM
[12] = second compound 0.1 µM, first compound 10 µM
[13] = second compound 0.316 µM, first compound 0.0316 µM
[14] = second compound 0.316 µM, first compound 0.1 µM
[15] = second compound 0.316 µM, first compound 0.316 µM
[16] = second compound 0.316 µM, first compound 1 µM
[17] = second compound 0.316 µM, first compound 3.16 µM
[18] = second compound 0.316 µM, first compound 10 µM
[19] = second compound 1 µM, first compound 0.0316 µM
[20] = second compound 1 µM, first compound 0.1 µM
[21] = second compound 1 µM, first compound 0.316 µM
[22] = second compound 1 µM, first compound 1 µM
[23] = second compound 1 µM, first compound 3.16 µM
[24] = second compound 1 µM, first compound 10 µM
[25] = second compound 3.16 µM, first compound 0.0316 µM
[26] = second compound 3.16 µM, first compound 0.1 µM
[27] = second compound 3.16 µM, first compound 0.316 µM
[28] = second compound 3.16 µM, first compound 1 µM
[29] = second compound 3.16 µM, first compound 3.16 µM
[30] = second compound 3.16 µM, first compound 10 µM
[31] = second compound 10 µM, first compound 0.0316 µM
[32] = second compound 10 µM, first compound 0.1 µM
[33] = second compound 10 µM, first compound 0.316 µM
[34] = second compound 10 µM, first compound 1 µM
[35] = second compound 10 µM, first compound 3.16 µM
[36] = second compound 10 µM, first compound 10 µM
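Further: spheroids exposed to compounds for 7 days before readout.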
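Wherever viability, T/C is given: 100% = DMSO vehicle control viability.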

SMILES: C#Cc1c(F)ccc2cc(O)cc(-c3ncc4c(N5CC6CCC(C5)N6)nc(OCC56CCCN5CC(F)C6)nc4c3F)c12 (stereo unspecified) + COC1C(OC(N)=O)C(O)C(Oc2ccc3c(O)c(NC(=O)c4ccc(O)c(CC=C(C)C)c4)c(=O)oc3c2C)OC1(C)C
- IC50 (second compound 0.0316 µM): > 10 µM
- IC50 (second compound 0.1 µM): > 10 µM
- IC50 (second compound 0.316 µM): > 10 µM
- IC50 (second compound 1 µM): > 10 µM
- IC50 (second compound 3.16 µM): > 10 µM
- IC50 (second compound 10 µM): > 10 µM
- viability, T/C [1]: 103%
- viability, T/C [2]: 107%
- viability, T/C [3]: 105%
- viability, T/C [4]: 109%
- viability, T/C [5]: 108%
- viability, T/C [6]: 95.1%
- viability, T/C [7]: 103%
- viability, T/C [8]: 106%
- viability, T/C [9]: 99.4%
- viability, T/C [10]: 88.2%
- viability, T/C [11]: 116%
- viability, T/C [12]: 104%
- viability, T/C [13]: 98.9%
- viability, T/C [14]: 120%
- viability, T/C [15]: 118%
- viability, T/C [16]: 91.5%
- viability, T/C [17]: 114%
- viability, T/C [18]: 92.7%
- viability, T/C [19]: 95.4%
- viability, T/C [20]: 113%
- viability, T/C [21]: 112%
- viability, T/C [22]: 107%
- viability, T/C [23]: 117%
- viability, T/C [24]: 90.6%
- viability, T/C [25]: 104%
- viability, T/C [26]: 123%
- viability, T/C [27]: 122%
- viability, T/C [28]: 121%
- viability, T/C [29]: 109%
- viability, T/C [30]: 104%
- viability, T/C [31]: 102%
- viability, T/C [32]: 102%
- viability, T/C [33]: 102%
- viability, T/C [34]: 110%
- viability, T/C [35]: 102%
- viability, T/C [36]: 91.6%

SMILES: C=CC(=O)N1CCN(c2nc(=O)n(-c3c(C)ccnc3C(C)C)c3nc(-c4c(O)cccc4F)c(F)cc23)C(C)C1 (stereo unspecified) + COC1C(OC(N)=O)C(O)C(Oc2ccc3c(O)c(NC(=O)c4ccc(O)c(CC=C(C)C)c4)c(=O)oc3c2C)OC1(C)C
- IC50 (second compound 0.0316 µM): > 10 µM
- IC50 (second compound 0.1 µM): > 10 µM
- IC50 (second compound 0.316 µM): > 10 µM
- IC50 (second compound 1 µM): > 10 µM
- IC50 (second compound 3.16 µM): > 10 µM
- IC50 (second compound 10 µM): > 10 µM
- viability, T/C [1]: 114%
- viability, T/C [2]: 123%
- viability, T/C [3]: 115%
- viability, T/C [4]: 103%
- viability, T/C [5]: 104%
- viability, T/C [6]: 93.3%
- viability, T/C [7]: 108%
- viability, T/C [8]: 129%
- viability, T/C [9]: 115%
- viability, T/C [10]: 115%
- viability, T/C [11]: 114%
- viability, T/C [12]: 95.5%
- viability, T/C [13]: 115%
- viability, T/C [14]: 124%
- viability, T/C [15]: 109%
- viability, T/C [16]: 98.8%
- viability, T/C [17]: 133%
- viability, T/C [18]: 99.9%
- viability, T/C [19]: 107%
- viability, T/C [20]: 106%
- viability, T/C [21]: 110%
- viability, T/C [22]: 120%
- viability, T/C [23]: 115%
- viability, T/C [24]: 119%
- viability, T/C [25]: 98.8%
- viability, T/C [26]: 110%
- viability, T/C [27]: 109%
- viability, T/C [28]: 114%
- viability, T/C [29]: 104%
- viability, T/C [30]: 122%
- viability, T/C [31]: 88.3%
- viability, T/C [32]: 124%
- viability, T/C [33]: 123%
- viability, T/C [34]: 109%
- viability, T/C [35]: 117%
- viability, T/C [36]: 104%

SMILES: CC1COCCN1c1cc(C2(O)CC3CCC(C2)O3)c2cnn(-c3ccn[nH]3)c2n1 (stereo unspecified) + COC1C(OC(N)=O)C(O)C(Oc2ccc3c(O)c(NC(=O)c4ccc(O)c(CC=C(C)C)c4)c(=O)oc3c2C)OC1(C)C
- IC50 (second compound 0.0316 µM): 1.46 µM
- IC50 (second compound 0.1 µM): 1.93 µM
- IC50 (second compound 0.316 µM): 0.947 µM
- IC50 (second compound 1 µM): 1.58 µM
- IC50 (second compound 3.16 µM): 1.87 µM
- IC50 (second compound 10 µM): 1.45 µM
- viability, T/C [1]: 85.5%
- viability, T/C [2]: 95.5%
- viability, T/C [3]: 81.5%
- viability, T/C [4]: 58.6%
- viability, T/C [5]: 33.2%
- viability, T/C [6]: 29.4%
- viability, T/C [7]: 102%
- viability, T/C [8]: 95.3%
- viability, T/C [9]: 80.4%
- viability, T/C [10]: 64.8%
- viability, T/C [11]: 39%
- viability, T/C [12]: 25%
- viability, T/C [13]: 106%
- viability, T/C [14]: 100%
- viability, T/C [15]: 78.9%
- viability, T/C [16]: 50.5%
- viability, T/C [17]: 26.5%
- viability, T/C [18]: 26.1%
- viability, T/C [19]: 104%
- viability, T/C [20]: 106%
- viability, T/C [21]: 85.7%
- viability, T/C [22]: 59.8%
- viability, T/C [23]: 36.2%
- viability, T/C [24]: 23.7%
- viability, T/C [25]: 89.8%
- viability, T/C [26]: 76.4%
- viability, T/C [27]: 73.9%
- viability, T/C [28]: 56.1%
- viability, T/C [29]: 46%
- viability, T/C [30]: 21.6%
- viability, T/C [31]: 84.7%
- viability, T/C [32]: 95.8%
- viability, T/C [33]: 74.3%
- viability, T/C [34]: 56.4%
- viability, T/C [35]: 36.7%
- viability, T/C [36]: 21.2%
